Reference: patent US20230167103A1 (Bayer Aktiengesellschaft, priority 2020, published 2023)

Target: T1, human DGKζ (Homo sapiens, UniProt Q13574)
T1 construct: made in house; host or cells: Sf9 insect cells, baculovirus
Test: Human DGKζ kinase activity inhibition assay (ADP-Glo)
Assay type: biochemical
Settings: example compounds; recombinant full-length human DGKζ, 1,2-dioleoyl-sn-glycerol 7 μM, ATP 55 μM, 20 min at 22° C.; read-out: IC50 values of examples in in vitro human DGKζ kinase activity inhibition assays
Experimental: Human diacylglycerol kinase zeta (DGKζ) inhibitory activity of compounds of the present invention was quantified employing the human DGKζ kinase activity assay as described in the following paragraphs. In essence, the enzyme activity was measured by quantification of the adenosine-di-phosphate (ADP) generated as a co-product of the enzyme reaction via the “ADP-Glo™ Kinase Assay” kit from the company Promega. This detection system works as follows: In a first step the adenosine-tri-phosphate (ATP) not consumed in the kinase reaction is quantitatively converted to cyclic adenosine-mono-phosphate (cAMP) employing an adenylate cyclase (“ADP-Glo-reagent”), then the adenylate cyclase is stopped and the ADP generated in the kinase reaction is converted to ATP, which subsequently generates in a luciferase-based reaction a glow-luminescence signal (“Kinase Detection Reagent”).
C-terminally FLAG-tagged, recombinant full-length human DGKζ (inhouse expressed in baculovirus infected insect cells, purified using anti-Flag pulldown and size exclusion chromatography) was used as enzyme. As an alternative, commercially available enzyme by Carnabio can be used. As substrate for the kinase, 1,2-dioleoyl-sn-glycerol, reconstituted in octyl-β-D-glucopyranoside micelles, was used. […] Subsequently, 22.55 volumes of a 510 mM solution of octyl-β-D-glucopyranoside (Sigma-Aldrich, Cat. #O8001-10G) in 50 mM MOPS buffer (pH 7.4) were added, and the mixture was sonicated in an ultrasonic bath for 20 s. Then 35 volumes of 50 mM MOPS buffer (pH 7.4) were added to yield a solution of 0.28 mM 1,2 dioleoyl-sn-glycerol and 200 mM octyl-β-D-glucopyranoside, which was aliquoted, flash-frozen in liquid nitrogen, and stored at −20° C. until use.
For the assay 50 nl of a 100-fold concentrated solution of the test compound in dimethyl sulfoxide (DMSO, Sigma) was pipetted into either a white 1536-well or a white low-volume 384-well microtiter plate (both Greiner Bio-One, Frickenhausen, Germany). […] The concentration of DGKζ was adjusted depending of the activity of the enzyme lot and was chosen appropriate to have the assay in the linear range, a typical concentration is about 0.1 nM. The reaction was stopped by the addition of 2.5 μL of “ADP-Glo-reagent” (1 to 1.5 diluted with water) and the resulting mixture was incubated at 22° C. for 1 h to convert the ATP not consumed in the kinase reaction completely to cAMP. Subsequently 2.5 μl of the “kinase detection reagent” (1.2 fold more concentrated than recommended by the producer) were added, the resulting mixture was incubated at 22° C. for 1 h and then the luminescence measured with a suitable measurement instrument (e.g. Viewlux™ from Perkin-Elmer). The amount of emitted light was taken as a measure for the amount of ADP generated and thereby for the activity of the DGKζ.
The data were normalised (enzyme reaction without inhibitor=0% inhibition, all other assay components but no enzyme=100% inhibition).

T1 sequence (Q13574 with tags, fused parts or gaps): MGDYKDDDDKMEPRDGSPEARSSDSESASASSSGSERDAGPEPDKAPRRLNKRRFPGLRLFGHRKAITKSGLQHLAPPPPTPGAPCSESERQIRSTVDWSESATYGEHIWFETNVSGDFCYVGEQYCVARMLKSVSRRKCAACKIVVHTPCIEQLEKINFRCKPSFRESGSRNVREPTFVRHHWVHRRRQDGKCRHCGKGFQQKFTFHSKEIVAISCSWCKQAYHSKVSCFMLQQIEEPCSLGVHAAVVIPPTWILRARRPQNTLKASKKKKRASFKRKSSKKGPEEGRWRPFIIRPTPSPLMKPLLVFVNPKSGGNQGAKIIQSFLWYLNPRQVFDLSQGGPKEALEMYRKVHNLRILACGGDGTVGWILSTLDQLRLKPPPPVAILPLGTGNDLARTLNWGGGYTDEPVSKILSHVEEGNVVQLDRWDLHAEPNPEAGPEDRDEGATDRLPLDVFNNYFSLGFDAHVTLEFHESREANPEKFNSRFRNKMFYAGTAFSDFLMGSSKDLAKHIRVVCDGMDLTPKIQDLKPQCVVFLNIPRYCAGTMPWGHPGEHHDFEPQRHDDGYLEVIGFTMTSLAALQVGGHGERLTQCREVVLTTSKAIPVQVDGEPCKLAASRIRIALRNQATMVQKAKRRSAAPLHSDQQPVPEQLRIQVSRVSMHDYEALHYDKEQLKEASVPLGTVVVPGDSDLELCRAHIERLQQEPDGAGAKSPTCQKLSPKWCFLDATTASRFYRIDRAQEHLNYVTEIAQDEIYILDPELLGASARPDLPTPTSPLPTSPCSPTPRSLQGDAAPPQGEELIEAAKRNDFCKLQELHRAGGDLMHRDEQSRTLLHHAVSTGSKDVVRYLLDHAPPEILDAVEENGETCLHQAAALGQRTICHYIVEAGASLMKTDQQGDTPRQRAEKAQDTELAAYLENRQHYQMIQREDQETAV

| IC50 [nM] | SMILES |
| --- | --- |
| 120 | CC(C(N)=O)N(c1ccc(F)cc1)c1nc(N)c(C(=O)c2cc(C(=O)NC3(C4CC4)CC3)no2)s1 (racemic) [Example 24, rac-5-[4-amino-2-(N-(2-amino-1-methyl-2-oxo-ethyl)-4-fluoro-anilino)thiazole-5-carbonyl]-N-(1-cyclopropylcyclopropyl)isoxazole-3-carboxamide] |
| 134 | CC(C(N)=O)N(c1ccc(F)cc1)c1nc(N)c(C(=O)c2cc(C(=O)NC3CCCC3)no2)s1 (racemic) [Example 25, rac-5-[4-amino-2-(N-(2-amino-1-methyl-2-oxo-ethyl)-4-fluoro-anilino)thiazole-5-carbonyl]-N-cyclopentyl-isoxazole-3-carboxamide] |
| 148 | CC(C(N)=O)N(c1ccc(F)cc1)c1nc(N)c(C(=O)c2cc(C(=O)N3CCCCC3)no2)s1 (racemic) [Example 27, rac-2-(N-[4-amino-5-[3-(piperidine-1-carbonyl)isoxazole-5-carbonyl]thiazol-2-yl]-4-fluoro-anilino)propanamide] |
| 90 | CC(C(N)=O)N(c1ccc(F)cc1)c1nc(N)c(C(=O)c2cc(C(=O)Nc3ccccn3)no2)s1 (racemic) [Example 28, rac-5-[4-amino-2-(N-(2-amino-1-methyl-2-oxo-ethyl)-4-fluoro-anilino)thiazole-5-carbonyl]-N-(2-pyridyl)isoxazole-3-carboxamide] |
| 97 | CC(C(N)=O)N(c1ccc(F)cc1)c1nc(N)c(C(=O)c2cc(C(=O)NCCOC(F)(F)F)no2)s1 (racemic) [Example 29, rac-5-[4-amino-2-(N-(2-amino-1-methyl-2-oxo-ethyl)-4-fluoro-anilino)thiazole-5-carbonyl]-N-[2-(trifluoromethoxy)ethyl]isoxazole-3-carboxamide] |
| 88 | CC(C(N)=O)N(c1ccc(F)cc1)c1nc(N)c(C(=O)c2cc(C(=O)NC3(C)CCC3)no2)s1 (racemic) [Example 30, rac-5-[4-amino-2-(N-(2-amino-1-methyl-2-oxo-ethyl)-4-fluoro-anilino)thiazole-5-carbonyl]-N-(1-methylcyclobutyl)isoxazole-3-carboxamide] |
| 193 | CC(C(N)=O)N(c1ccc(F)cc1)c1nc(N)c(C(=O)c2cc(C(=O)NC34CC(C3)C4)no2)s1 (racemic) [Example 31, rac-5-[4-amino-2-(N-(2-amino-1-methyl-2-oxo-ethyl)-4-fluoro-anilino)thiazole-5-carbonyl]-N-(1-bicyclo[1.1.1]pentanyl)isoxazole-3-carboxamide] |
| 93 | CC(C(N)=O)N(c1ccc(F)cc1)c1nc(N)c(C(=O)c2cc(C(=O)NC3CC(F)(F)C3)no2)s1 (racemic) [Example 32, rac-5-[4-amino-2-(N-(2-amino-1-methyl-2-oxo-ethyl)-4-fluoro-anilino)thiazole-5-carbonyl]-N-(3,3-difluorocyclobutyl)isoxazole-3-carboxamide] |
| 48 | CC(C(N)=O)N(c1ccc(F)cc1)c1nc(N)c(C(=O)c2cc(C(=O)NC3CCC(F)(F)C3)no2)s1 (racemic) [Example 33, 5-[4-amino-2-(N-(2-amino-1-methyl-2-oxo-ethyl)-4-fluoro-anilino)thiazole-5-carbonyl]-N-(3,3-difluorocyclopentyl)isoxazole-3-carboxamide] |
| 223 | CC(C)NC(=O)c1cc(C(=O)c2sc(N(c3ccc(F)cc3)C(C)C(N)=O)nc2N)on1 (racemic) [Example 34, rac-5-[4-amino-2-(N-(2-amino-1-methyl-2-oxo-ethyl)-4-fluoro-anilino)thiazole-5-carbonyl]-N-isopropyl-isoxazole-3-carboxamide] |
| 566 | CC(C(N)=O)N(c1ccc(F)cc1)c1nc(N)c(C(=O)c2cc(C(=O)NCC#N)no2)s1 (racemic) [Example 35, rac-5-[4-amino-2-(N-(2-amino-1-methyl-2-oxo-ethyl)-4-fluoro-anilino)thiazole-5-carbonyl]-N-(cyanomethyl)isoxazole-3-carboxamide] |
| 446 | COCC(C)NC(=O)c1cc(C(=O)c2sc(N(c3ccc(F)cc3)C(C)C(N)=O)nc2N)on1 (racemic) [Example 36, 5-[4-amino-2-(N-(2-amino-1-methyl-2-oxo-ethyl)-4-fluoro-anilino)thiazole-5-carbonyl]-N-(2-methoxy-1-methyl-ethyl)isoxazole-3-carboxamide] |
| 43 | CC(C(N)=O)N(c1ccc(F)cc1)c1nc(N)c(C(=O)c2cc(C(=O)NC3CCCC3(C)C)no2)s1 (racemic) [Example 37, 5-[4-amino-2-(N-(2-amino-1-methyl-2-oxo-ethyl)-4-fluoro-anilino)thiazole-5-carbonyl]-N-(2,2-dimethylcyclopentyl)isoxazole-3-carboxamide] |
| 344 | CC(C(N)=O)N(c1ccc(F)cc1)c1nc(N)c(C(=O)c2cc(C(=O)N[C@H]3C[C@@H](F)C3)no2)s1 (mixture of isomers) [Example 38, 5-[4-amino-2-(N-(2-amino-1-methyl-2-oxo-ethyl)-4-fluoro-anilino)thiazole-5-carbonyl]-N-(cis-3-fluorocyclobutyl)isoxazole-3-carboxamide] |
| 53 | CC(C(N)=O)N(c1ccc(F)cc1)c1nc(N)c(C(=O)c2cc(C(=O)NC3(C)CCCC3)no2)s1 (racemic) [Example 39, rac-5-[4-amino-2-(N-(2-amino-1-methyl-2-oxo-ethyl)-4-fluoro-anilino)thiazole-5-carbonyl]-N-(1-methylcyclopentyl)isoxazole-3-carboxamide] |
| 204 | CC(C(N)=O)N(c1ccc(F)cc1)c1nc(N)c(C(=O)c2cc(C(=O)NC(CF)CF)no2)s1 (racemic) [Example 40, rac-5-[4-amino-2-(N-(2-amino-1-methyl-2-oxo-ethyl)-4-fluoro-anilino)thiazole-5-carbonyl]-N-[2-fluoro-1-(fluoromethyl)ethyl]isoxazole-3-carboxamide] |
| 134 | CC(NC(=O)c1cc(C(=O)c2sc(N(c3ccc(F)cc3)C(C)C(N)=O)nc2N)on1)C(F)F (racemic) [Example 41, 5-[4-amino-2-(N-(2-amino-1-methyl-2-oxo-ethyl)-4-fluoro-anilino)thiazole-5-carbonyl]-N-(2,2-difluoro-1-methyl-ethyl)isoxazole-3-carboxamide] |
| 146 | CC(C(N)=O)N(c1ccc(F)cc1)c1nc(N)c(C(=O)c2cc(C(=O)N[C@H]3C[C@H](F)C3)no2)s1 (mixture of isomers) [Example 42, 5-[4-amino-2-(N-(2-amino-1-methyl-2-oxo-ethyl)-4-fluoro-anilino)thiazole-5-carbonyl]-N-(trans-3-fluorocyclobutyl)isoxazole-3-carboxamide] |
| 94 | CC(C(N)=O)N(c1ccc(F)cc1)c1nc(N)c(C(=O)c2cc(C(=O)NC3CCC(C)(C)C3)no2)s1 (racemic) [Example 43, 5-[4-amino-2-(N-(2-amino-1-methyl-2-oxo-ethyl)-4-fluoro-anilino)thiazole-5-carbonyl]-N-(3,3-dimethylcyclopentyl)isoxazole-3-carboxamide] |

| SMILES | IC50 [nM] |
| --- | --- |
| CC(C(N)=O)N(c1ccc(F)cc1)c1nc(N)c(C(=O)c2cc(C(=O)NCCOC(C)(C)C)no2)s1 (racemic) [Example 26, rac-5-[4-amino-2-(N-(2-amino-1-methyl-2-oxo-ethyl)-4-fluoro-anilino)thiazole-5-carbonyl]-N-(2-tert-butoxyethyl)isoxazole-3-carboxamide] | 138 |
